For one series, the system named is Candida albicans. Put plainly: Antifungal activity assay (MIC) in PDA media. To be noted: for C. albicans (MIC): PDA media containing 0.2% yeast extract. It counts as cell-based. Here is the method: (§1) Candida albicans and Malassezia furfur were used to carry out the antifungal assay in Potato Dextrose Agar (PDA) media containing 0.2% yeast extract. The Minimum Inhibitory Concentration (MIC) was recorded (Table 1).

The next series has as its system Malassezia furfur. The series is described as follows: Antifungal activity assay (MIC) in PDA media. Type of series: cell-based. To be noted: for M. furfur (MIC): PDA media containing 0.2% yeast extract. The protocol:
as §1

The test system of series [1] is anti-oxidant response element (ARE). The series is described as follows: Antioxidant elicitation assay (ARE-driven luciferase activity) in reporter cell line ARE32. It counts as cell-based. To be noted: ARE32 cells. Here is the method: The cell line ARE32 was incubated with eight concentrations of P1639C and the positive control tert-butylhydroquinone (tBHQ) for 24 hours, and the luciferase activity measured (Luciferase Assay System, Promega). P1639C enhanced induction of ARE-driven luciferase activity up to 18-fold (at a concentration of 30 μM) (FIG. 2b) compared with normal cells without any oxidative induction.
The ARE comparison was also carried out between p1639C (5-hexyl-2(5H)-furanone), 4-decanolide (5-hexyl-2(3H)-furanone) and 2(5H)-furanone.

The next series has as its system MRSA. The series is described as follows: Antimicrobial activity against MRSA. Type of series: cell-based.
In the next series the test system is NF-κB. Put plainly: Anti-inflammatory assay: NFκB activity in TNF-α stimulated mammalian cell culture (PRINCESS NINA NFκB Assay Kit). It counts as cell-based. The protocol: (§2) Anti-inflammatory assay was carried out based on the NFκB expression and IKKβ activity. NFκB expression was tested using PRINCESS® NINA NFκB Assay Kit. P1639C and other related lactone compounds were supplemented to a mammalian cell culture in which NFκB has been stimulated by TNF-α. The assay was also coupled with an in vitro cell toxicity assay. IKKβ was tested using 5-20 mU of IKKβ, which was diluted in 50 mM Tris (pH 7.5), 0.1 mM EGTA, 1 mg/ml BSA, 0.1%, b-Mercaptoethanol. The kinase is assayed against substrate peptide (LDDRHDSGLDSMKDEEY) in a final volume of 25.5 μl containing 50 mM Tris (pH 7.5), 0.1 mM EGTA, 0.1%, b-Mercaptoethanol, 300 μM substrate peptide, 10 mM magnesium acetate and 0.005 mM [33P-g-ATP] (500-1000 cpm/pmole) and incubated for 30 mins at room temperature. Assays are stopped by addition of 50 of 0.5M (3%) orthophosphoric acid. The phosphorylated peptide was harvested on a p81 filterplate and the phosphorylation level was measured by scintillation counts.
P1639C was supplemented to the mammalian cell culture with a series of concentration at 0.001 mM, 0.002 mM, 0.005 mM, 0.01 mM, 0.02 mM, 0.05 mM, 0.1 mM, 0.2 mM and 0.5 mM. SEAP provided in the Princess NINA kit was used as a stimulatory control to show normal inflammatory response in cells, whereas BAY11-7082 at a final concentration of 5 μM was used as the positive control of inhibited NF-κB activity. The cell with TNF-α was used as the negative control. The cell response to the supplemented compounds was measured by the 450 nm emission (360 nm excitation) after addition of inactivation buffer and MUP solution.

Another series addresses T1, IKKβ (Homo sapiens, UniProt O14920).
T1 sequence (O14920 1-756): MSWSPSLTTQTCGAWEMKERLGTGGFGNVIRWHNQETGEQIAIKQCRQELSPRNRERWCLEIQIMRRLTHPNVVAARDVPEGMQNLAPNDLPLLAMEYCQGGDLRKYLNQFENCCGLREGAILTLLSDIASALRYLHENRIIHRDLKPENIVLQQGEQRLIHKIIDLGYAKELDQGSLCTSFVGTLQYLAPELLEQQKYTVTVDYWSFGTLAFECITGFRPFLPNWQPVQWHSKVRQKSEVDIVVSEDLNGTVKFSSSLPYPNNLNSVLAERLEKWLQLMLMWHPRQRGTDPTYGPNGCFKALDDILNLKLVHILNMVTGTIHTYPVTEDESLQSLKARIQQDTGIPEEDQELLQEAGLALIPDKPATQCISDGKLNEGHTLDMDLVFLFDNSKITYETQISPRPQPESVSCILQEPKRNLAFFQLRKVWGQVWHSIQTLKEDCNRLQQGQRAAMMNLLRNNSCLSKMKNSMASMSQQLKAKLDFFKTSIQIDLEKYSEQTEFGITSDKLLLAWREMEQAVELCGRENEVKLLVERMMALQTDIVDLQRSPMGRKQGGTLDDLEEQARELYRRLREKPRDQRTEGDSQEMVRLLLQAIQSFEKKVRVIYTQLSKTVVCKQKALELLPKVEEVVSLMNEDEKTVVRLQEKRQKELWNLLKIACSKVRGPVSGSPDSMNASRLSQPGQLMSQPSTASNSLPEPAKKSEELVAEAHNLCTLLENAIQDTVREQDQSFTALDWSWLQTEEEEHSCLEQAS
Put plainly: IKKβ kinase assay (33P phosphorylation of substrate peptide). It counts as biochemical. To be noted: 50 μM. Here is the method: as §2

For another series, the system named is mammalian cell culture. The series is described as follows: Cell viability (resazurin) coupled with the NFκB assay. Type of series: cell-based. To be noted: concentrations of the NF-κB assay. The protocol:
as §2
Cell viability was carried out by incubation of the cells with resazurin and measuring the absorption at 600 nm against a reference measurement of above 650 nm.

≈ marks a conversion by molar mass, not a printed value. Bounds are passed on as bounds.

Experimental for human hepatocytes: The toxicology assay was carried out using an in vitro human hepatocytes model where human hepatocytes were exposed to varying concentrations of compound [MUT] as well as tamoxifen and chlorpromazine for three hours.

Consider `O=C1C=CCO1` [2(5H)-furanone], for which, in the series with Candida albicans, the “C. albicans (MIC)” value is >10 µg. In addition, the “M. furfur (MIC)” value in the series on Malassezia furfur was >10 µg. Besides, the “anti-oxidant elicitation effect (ARE-driven gene expression)” value in series [1] (comparison of FIG. 8) is reported as “did not show significant anti-oxidant elicitation effects”. Moreover, the “MRSA (antimicrobial activity)” value in the series on MRSA was >20 µg.

For `CC1=CCOC1=O` [3-methy1-2(5H)-furanone], the “C. albicans (MIC)” value in the series on Candida albicans lay within 5 to 7 µg. Besides, the “M. furfur (MIC)” value in the series with Malassezia furfur was 5 to 6 µg. In addition, in the series on MRSA, the “MRSA (antimicrobial activity)” value was >20 µg.

As to `CC1=CCC(=O)O1` [5-methyl-2(3H)-furanone], the “C. albicans (MIC)” value with Candida albicans fell in the range of 5 to 7 µg. The “M. furfur (MIC)” value with Malassezia furfur lay in the range of 5 to 7 µg. Moreover, in the series on MRSA, the “MRSA (antimicrobial activity)” value is >20 µg.

For `CC1C=CC(=O)O1` (stereo not drawn) [5-methyl-2(5H)-furanone], the “C. albicans (MIC)” value in the series on Candida albicans fell in the range of 5 to 7 µg. For the same compound, in the series on Malassezia furfur, the “M. furfur (MIC)” value was in the range of 5 to 7 µg. Moreover, in the series on MRSA, the “MRSA (antimicrobial activity)” value is >20 µg.

Broadly, the MIC is the lowest concentration that inhibits growth of the organism. Regarding `CCCCCCC1C=CC(=O)O1` (stereo not drawn) [P1639C, 5-hexylfuran-2(5H)-one], the “NF-κB inhibition activity, comparison with known butenolides” value in the series on NF-κB (0.05 mM) was “the only active compound”. In addition, the “inhibition of NF-κB mediated inflammatory response” value in the series with NF-κB (0.5 mM) is given as “almost fully inhibited”. For the same compound, the IC50 in the series on NF-κB (TNF-α elicited response = 100%, read-out: concentration inhibiting 50% of the NF-κB mediated inflammatory response) was found to be 20 µM. For the same compound, the minimal inhibitory concentration (MIC) was 1 to 1.5 µg/mL (≈ 5.94 to 8.92 µM) in the series with Candida albicans (Candida albicans, read-out: MIC against C. albicans) and 0.8 µg/mL (≈ 4.76 µM) in the series on Malassezia furfur (Malassezia furfur, read-out: MIC against M. furfur). For the same compound, the “C. albicans (MIC)” value in the series with Candida albicans was 1 to 1.5 µg. In addition, the “M. furfur (MIC)” value in the series on Malassezia furfur was <1 µg. For the same compound, the “IKKβ phosphorylation activity decreased to” value at IKKβ is 64%±2%. Also, the “depletion of intracellular ATP (level of toxicity)” value (shortened to “depletion of intracellular ATP”) in the series on human hepatocytes is on record as “significant ATP depletion was not observed”. Further, in the series on mammalian cell culture, the “cytotoxicity against the testing cells” value is “no significant cytotoxicity”. Moreover, the “induction of ARE-driven luciferase activity” value in series [1] (30 μM, 24 hours, compared with normal cells without oxidative induction) was “up to 18 fold”. Further, in the series on MRSA, the “MRSA (antimicrobial activity)” value is >10 µg.

Turning to `CN(C)CCCN1c2ccccc2Sc2ccc(Cl)cc21` [chlorpromazine], in the series with human hepatocytes, the “depletion of intracellular ATP” value was “moderate decreasing rate of intracellular ATP level”.

As for `CC/C(=C(\c1ccccc1)c1ccc(OCCN(C)C)cc1)c1ccccc1` [tamoxifen], the “depletion of intracellular ATP” value in the series on human hepatocytes is given as “moderate decreasing rate of intracellular ATP level”.

For the origin of these results see patent publication US20110123470A1, “NATURAL BIOACTIVE COMPOUNDS” (Aquapharm Bio-Discovery Ltd., priority 2007, published 2011).
